Measured values from patent publication US20130236480A1, “TRANSGLUTAMINASE 2 INHIBITORS FOR USE IN THE PREVENTION OR TREATMENT OF RAPIDLY PROGRESSIVE GLOMERULONEPHRITIS” (priority 2010, published 2013).

System: primary culture of mouse podocytes
Test: Wound assay of podocyte migration
Assay type: cell-based
Details: 100 μM MDC in DMSO, differentiated podocytes, p<0.05 vs. vehicle alone (n=3)
Method: FIG. 4: Distance of migration of differentiated podocytes within 20 h in the wound assay. A wound assay was used to assess podocyte migration. Differentiated cells were seeded in a 35 mm μ-Dish (Ibidi) forming two confluent monolayers separated by a silicon insert of 500 μm width. After 1 day, the silicon insert was removed and 100 μM of MDC (monodansylcadaverin, Sigma-Aldrich #D4008) diluted in DMSO, a TG2 inhibitor, was added or not. Cells were fixed 20 h later and the distance between the two monolayers was measured. *p<0.05 vs. vehicle alone (n=3 per condition).
In vivo podocytes are terminally differentiated and stationary cells. During crescent formation in anti-GBM GN in mice, however, podocytes assume a migratory phenotype, attach with their apical membrane onto the parietal basement membrane and start to proliferate.

CN(C)c1cccc2c(S(=O)(=O)NCCCCCN)cccc12 [monodansylcadaverine]
Migration of podocytes (distance of migration within 20 h in the wound assay): significantly blunted
